Measured values: US12338219B2, “Antimalarial agents” (Merck Sharp & Dohme LLC, priority 2019, dated 2025)

Tested on: parasites (ring stage parasites, parasite growth)
Assay: Parasite LDH growth assay (Parasite Assay), antiparasite potency
Format: cell-based
Conditions: 72 hours growth, LDH readout
Procedure, shortened: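 Ring-stage culture was adjusted to 0.7% parasitemia and 2% haematocrit in bicarbonate-buffered RPMI-Hepes with heat-inactivated human serum and 0.5% albumax, then added to compound. Plates were incubated 72 h at 37 °C in gassed humidified boxes, frozen at −80 °C overnight and thawed, and growth was read by LDH assay.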

Row | Structure (SMILES) | EC50 (72 h, Table 3) [nM] | also measured
1 | COCC[C@H]([C@@H]1C[C@H]1C(=O)N[C@H]1CCOc2ccccc21)N1C(=N)N[C@](C)(C(C)C)CC1=O [Example 22] | 44 | –
2 | CC1(C)CC(=O)N(C[C@@H]2C[C@H]2C(=O)N[C@H]2CC(C)(C)Oc3cccc(Cl)c32)C(=N)N1 [Example 119] | 26 | –
3 | CCC1(CC)CC(=O)N([C@H](c2cccnc2)[C@@H]2C[C@H]2C(=O)N[C@H]2CC(C)(C)Oc3ccccc32)C(=N)N1 [Example 2, (1R,2R)-2-((S)-(4,4-diethyl-2-imino-6-oxotetrahydropyrimidin-1(2H)-yl)(pyridin-3-yl)methyl)-N—((S)-2,2-dimethylchroman-4-yl)cyclopropanecarboxamide] | 0.9 | –
4 | COCC[C@H]([C@@H]1C[C@H]1C(=O)N[C@@H]1CC(C)(C)Oc2cccc(OC(F)(F)F)c21)N1C(=N)NC(C)(C)CC1=O [Example 107B] | 11 | –
5 | COCC[C@H]([C@@H]1C[C@H]1C(=O)N[C@H]1C[C@H](C(F)(F)F)Oc2ccccc21)N1C(=N)N[C@](C)(C(C)C)CC1=O [Example 21B] | – | EC50 (Table 3): 1 nM
6 | COCC[C@H]([C@@H]1C[C@H]1C(=O)NC1CC(C)(C)Oc2cc(F)ccc21)N1C(=N)NC(C)(C)CC1=O (stereo partly drawn) [Example 76B] | – | EC50 (Table 3): 15 nM
7 | CCC1(CC)CC(=O)N([C@H](c2cccnc2)[C@@H]2C(C)[C@H]2C(=O)N[C@H]2C[C@H](C(F)(F)F)Oc3ccccc32)C(=N)N1 (stereo partly drawn) [Example 55A] | 0.8 | –
8 | CC1(C)CC(=O)N(C(c2cccnc2)[C@H]2[C@H](C(=O)N[C@H]3CC(C)(C)Oc4ccccc43)C2(C)C)C(=N)N1 (stereo partly drawn) [Example 49B] | – | EC50 (Table 3): 14 nM
9 | CC1(C)CC(=O)N(C[C@@H]2C[C@H]2C(=O)NC2CC(C)(C)Oc3ccc(OC(F)(F)F)cc32)C(=N)N1 (stereo partly drawn) [Example 125B] | – | EC50 (Table 3): 160 nM
10 | COCC[C@H]([C@@H]1C[C@H]1C(=O)N[C@H]1CC(C)(C)Oc2cccc(F)c21)N1C(=N)NC(C)(C)CC1=O [Example 88A] | 5.2 | –
11 | CCC1(CC)CC(=O)N(C[C@@H]2C(C)[C@H]2C(=O)N[C@H]2C[C@H](C(F)(F)F)Oc3ccccc32)C(=N)N1 (stereo partly drawn) [Example 28A] | 12 | –
12 | COCC[C@H]([C@@H]1C[C@H]1C(=O)NC1CC(C)(C)Oc2c(Cl)cccc21)N1C(=N)NC(C)(C)CC1=O (stereo partly drawn) [Example 112A] | 18 | –
13 | CC(C)C1(C)CC(NC(=O)[C@@H]2C[C@H]2[C@@H](c2cccnc2)N2C(=N)NC(C)(C)CC2=O)c2ccccc2O1 (single isomer, unassigned) [Example 81B] | – | EC50 (Table 3): 1 nM
14 | CC1(C)CC(=O)N([C@H](c2cccnc2)[C@@H]2C[C@H]2C(=O)NC2CC(C)(C)Oc3c(F)cccc32)C(=N)N1 (stereo partly drawn) [Example 93A] | 3.3 | –
15 | CCC1(CC)CC(=O)N([C@H](CCOC)[C@@H]2C[C@H]2C(=O)N[C@@H]2CC(C)(C)Oc3ccccc32)C(=N)N1 [Example 1B] | 250 | –
16 | CCC1(CC)CC(=O)N([C@H](CCOC)[C@@H]2C[C@H]2C(=O)N[C@@H]2c3ccccc3C[C@H]2O)C(=N)N1 [Example 13] | 24 | –
17 | CC1(C)CC(=O)N([C@@H](c2cncc(Cl)c2)[C@@H]2C[C@H]2C(=O)N[C@H]2C[C@H](C(F)(F)F)Oc3ccccc32)C(=N)N1 [Example 60B] | 100 | –
18 | CC1(C)CC(=O)N([C@H](c2cccnc2)[C@@H]2C[C@H]2C(=O)N[C@@H]2CC(C)(C)Oc3cc(Cl)ccc32)C(=N)N1 [Example 91B] | 2.7 | –
19 | COCC[C@H]([C@@H]1C[C@H]1C(=O)N[C@@H]1CC(C)(C)Oc2ccc(F)cc21)N1C(=N)NC(C)(C)CC1=O [Example 72A] | 11 | –

Row | Structure (SMILES) | EC50 (72 h, Table 3) [nM] | also measured
20 | CC1(C)CC(=O)N(C[C@@H]2C[C@H]2C(=O)N[C@H]2CC(C3CC3)Oc3ccccc32)C(=N)N1 (stereo partly drawn) [Example 140B] | – | EC50 (Table 3): 280 nM
21 | COCC[C@H]([C@@H]1C[C@H]1C(=O)N[C@@H]1CC(C)(C)Oc2c(C(F)(F)F)ccc(F)c21)N1C(=N)NC(C)(C)CC1=O [Example 114A] | 89 | –
22 | CCC1(CC)CC(=O)N([C@H](CCOC)[C@@H]2C[C@H]2C(=O)N[C@H]2CC(C)(C)Oc3ccccc32)C(=N)N1 [Example 1A] | 1 | –
23 | CCC1(CC)CC(=O)N(C[C@@H]2C(C)[C@H]2C(=O)N[C@@H]2c3ccccc3CC2(C)O)C(=N)N1 (single isomer, unassigned) [Example 29C] | – | EC50 (Table 3): 113 nM
24 | COCC[C@H]([C@@H]1C[C@H]1C(=O)N[C@H]1CC(C)(C)Oc2c(F)cc(F)cc21)N1C(=N)NC(C)(C)CC1=O [Example 113B] | 7.5 | –
25 | CCC1(CC)CC(=O)N([C@H](CCOC)[C@@H]2C[C@H]2C(=O)NC2CC(C)(C)Oc3c(Cl)cccc32)C(=N)N1 (stereo partly drawn) [Example 148B] | – | EC50 (Table 4 (unit inferred)): 1.9 nM
26 | CCC1(CC)CC(=O)N(CC2C(C(=O)N[C@H]3C[C@H](C(F)(F)F)Oc4ccccc43)C2(C)C)C(=N)N1 (stereo partly drawn) [Example 31A] | 215 | –
27 | CC1(C)CC(=O)N([C@H](c2cccnc2)[C@@H]2C[C@H]2C(=O)N[C@H]2CC(C)(C)Oc3ccccc32)C(=N)N1 [Example 26] | 4.7 | –
28 | COc1ccc([C@H]([C@@H]2C[C@H]2C(=O)N[C@@H]2c3ccccc3OC(C)(C)[C@H]2O)N2C(=N)NC(C)(C)CC2=O)cn1 [Example 39] | 10.1 | –
29 | CC1(C)CC(=O)N([C@H](c2cncc(Cl)c2)[C@@H]2C[C@H]2C(=O)N[C@H]2C[C@H](C(F)(F)F)Oc3ccccc32)C(=N)N1 [Example 60A] | 0.5 | –
30 | CCC1(CC)CC(=O)N(C[C@@H]2C(C)[C@H]2C(=O)NC2c3ccccc3OC2(C)C)C(=N)N1 (stereo partly drawn) [Example 36A] | 247 | –
31 | CC(C)C1(C)CC(NC(=O)[C@@H]2C[C@H]2CN2C(=N)NC(C)(C)CC2=O)c2ccccc2O1 (stereo partly drawn) [Example 79A] | 255 | –
32 | CCC1(CC)CC(=O)N([C@H](CCOC)[C@@H]2C[C@H]2C(=O)N[C@H]2c3ccccc3OC(C)(C)[C@@H]2O)C(=N)N1 [Example 144] | – | EC50 (72 h, Table 4 (unit inferred)): 165 nM
33 | CC1(C)CC(=O)N([C@H](c2cccnc2)[C@@H]2C[C@H]2C(=O)N[C@@H]2CC(C)(C)Oc3c(C(F)(F)F)ccc(F)c32)C(=N)N1 [Example 115A] | 6.6 | –
34 | COCC[C@H]([C@@H]1C[C@H]1C(=O)N[C@H]1C[C@H](C(F)(F)F)Oc2ccccc21)N1C(=N)N[C@](C)(C(C)C)CC1=O [Example 21A] | – | EC50 (Table 3): 260 nM
35 | Cc1ccc2c(c1)OC(C)(C)C[C@@H]2NC(=O)[C@@H]1C[C@H]1[C@@H](c1cccnc1)N1C(=N)NC(C)(C)CC1=O [Example 85B] | 0.9 | –
36 | COCC[C@H]([C@@H]1C[C@H]1C(=O)NC1CC2(CCC2)Oc2ccccc21)N1C(=N)NC(C)(C)CC1=O (stereo partly drawn) [Example 131B] | – | EC50 (Table 3): 6.1 nM
37 | CCC1(CC)CC(=O)N([C@H](c2cccnc2)[C@@H]2C[C@H]2C(=O)N[C@@H]2c3ccccc3C[C@H]2O)C(=N)N1 [Example 10] | 27 | –
38 | CC[C@]1(C)CC(=O)N([C@H](CCOC)[C@@H]2C[C@H]2C(=O)N[C@H]2CC(C)(C)Oc3ccc(C)cc32)C(=N)N1 [Example 123] | 2 | –

Row | Structure (SMILES) | EC50 (72 h, Table 3) [nM] | also measured
39 | COc1cccc2c1C(NC(=O)[C@@H]1C[C@H]1[C@@H](c1cccnc1)N1C(=N)NC(C)(C)CC1=O)CC(C)(C)O2 (stereo partly drawn) [Example 96A] | 2.7 | –
40 | CC[C@]1(C)CC(=O)N([C@H](CCOC)[C@@H]2C[C@H]2C(=O)N[C@H]2C[C@H](C(F)(F)F)Oc3ccccc32)C(=N)N1 [Example 62B] | 0.8 | –
41 | CCC1(CC)CC(=O)N(C[C@@H]2C[C@H]2C(=O)N[C@H]2CCOc3ccccc32)C(=N)N1 [Example 4B] | 26 | –
42 | CC[C@]1(C)CC(=O)N(C(c2cncc(F)c2)[C@@H]2C[C@H]2C(=O)N[C@@H]2c3ccccc3OC(C)(C)C2(C)O)C(=N)N1 (single isomer, unassigned) [Example 103B] | – | EC50 (Table 3): 2.1 nM
43 | CCC1(CC)CC(=O)N(C[C@@H]2C(C)[C@H]2C(=O)N[C@H]2CC(C)(C)Oc3ccccc32)C(=N)N1 (single isomer, unassigned) [Example 25B] | – | EC50 (Table 3): 25 nM
44 | CCC1(CC)CC(=O)N([C@H](CCOC)[C@@H]2C[C@H]2C(=O)NC2CC(C)(C)Oc3c(Cl)cccc32)C(=N)N1 (stereo partly drawn) [Example 148A] | – | EC50 (72 h, Table 4 (unit inferred)): 2.7 nM
45 | COCC[C@H]([C@@H]1C[C@H]1C(=O)N[C@H]1CC(C)(C)Oc2ccc(F)cc21)N1C(=N)NC(C)(C)CC1=O [Example 72B] | 2.5 | –
46 | COc1cncc([C@H]([C@@H]2C[C@H]2C(=O)N[C@@H]2c3ccccc3OC(C)(C)[C@H]2O)N2C(=N)NC(C)(C)CC2=O)c1 [Example 42] | 18.4 | –
47 | CCC1(CC)CC(=O)N([C@H](CCOC)[C@@H]2C[C@H]2C(=O)NC2CC(C)(C)Oc3cccc(Cl)c32)C(=N)N1 (stereo partly drawn) [Example 149B] | – | EC50 (Table 4 (unit inferred)): 1.2 nM
48 | CC1(C)CC(=O)N(C[C@@H]2C[C@H]2C(=O)N[C@H]2CC(C)(C)Oc3cccc(F)c32)C(=N)N1 [Example 87] | 160 | –
49 | COCC[C@H]([C@@H]1C[C@H]1C(=O)N[C@@H]1C[C@@H](C(F)(F)F)Oc2ccccc21)N1C(=N)NC(C)(C)CC1=O [Example 24A] | – | EC50 (Table 3): 3.4 nM
50 | CCC1(CC)CC(=O)N([C@@H](c2cccnc2)[C@@H]2C(C)[C@H]2C(=O)N[C@H]2CC(C)(C)Oc3ccccc32)C(=N)N1 (stereo partly drawn) [Example 56A] | 65 | –
51 | COCC[C@H]([C@@H]1C[C@H]1C(=O)N[C@H]1CC(C)(C)Oc2c(C(F)(F)F)ccc(F)c21)N1C(=N)NC(C)(C)CC1=O [Example 114B] | 5.1 | –
52 | CC(C)C1(C)CC(NC(=O)[C@@H]2C[C@H]2CN2C(=N)NC(C)(C)CC2=O)c2ccccc2O1 (single isomer, unassigned) [Example 79C] | – | EC50 (Table 3): 289 nM
53 | CCC1(CC)CC(=O)N(C(CC(C)OC)[C@@H]2C[C@H]2C(=O)N[C@@H]2CC(C)(C)Oc3ccccc32)C(=N)N1 (single isomer, unassigned) [Example 143A] | – | EC50 (Table 4 (unit inferred)): 4.6 nM
54 | Cc1ccc2c(c1)OC(C)(C)C[C@@H]2NC(=O)[C@@H]1C[C@H]1CN1C(=N)NC(C)(C)CC1=O [Example 84] | 289 | –
55 | CC1(C)CC(=O)N([C@H](c2cccnc2)[C@@H]2C[C@H]2C(=O)N[C@H]2C[C@H](C(F)(F)F)Oc3ccccc32)C(=N)N1 [Example 32] | 1.8 | –
56 | CCC1(CC)CC(=O)N(C[C@@H]2C[C@H]2C(=O)N[C@@H]2C[C@@H](C(F)(F)F)Oc3ccccc32)C(=N)N1 [Example 8B] | 5.3 | –
57 | COCC[C@H]([C@@H]1C[C@H]1C(=O)N[C@@H]1CC(C)(C)Oc2cccc(OC)c21)N1C(=N)NC(C)(C)CC1=O [Example 74A] | 33 | –
